Experimental data reported in patent US20140121235A1, “Method for Treating S6K-Overexpressing Cancers” (Rush University Medical Center, priority 2012, published 2014).
“Also recorded” adds a separate entry of the source.

Experiments:
Type in all cases: cell-based
[1] = tested on: Raf-1 phosphorylation; experiment: Western blot of Raf-1 phosphorylation in A375 cells
Protocol: A375 cells seeded in a 6-well plate were starved in DMEM medium containing 0.5% FBS for 2 hr and treated with the indicated concentration of A77 1726 or PLX 4720 (1 μM) for another 2 hr (A) or treated with A77 1726 (100 μM) for the indicated time (B & C). Cells were harvested and analyzed for protein phosphorylation by specific antibodies as indicated. Protein loading was monitored by stripping membrane and re-probing with antibodies against non-phosphorylated proteins. (D) Uridine fails to reverse the effect of A77 1726 on the PI-3 and MAP kinase pathways. A375 cells seeded in a 6-well plate were starved in DMEM medium containing 05% FBS for 2 hr and treated with the indicated concentration of A77 1726 in the absence or presence of uridine (200 μM). Phosphorylated and total proteins were analyzed by Western blot as described above.
Cells grown in 6-well plates were harvested and lysed in NP-40 lysis buffer (50 mM Tris-HCI (pH 8.0), 150 mM NaCl, 1% NP-40, 5 mM EDTA, 10 μg/ml aprotinin, 10 μg/ml leupeptin, and 1 mM phenylmethylsulfonyl fluoride). After incubation on ice for 30 min, the cell lysates were prepared by spinning down at 4° C., 15,000 rpm for 15 min. […]

[2] = tested on: MCF-7 cells; experiment: Western blot of protein phosphorylation in MCF-7 cells
Protocol: (A) A77 1726 induces MAP kinase activation in A375 cells cultured in 10% fetal bovine serum. A375 cells were seeded in a 6-well plate overnight and then stimulated with various concentrations of A77 1726 or PLX 4720 (1 μM) for 2 hr. Cells were harvested and analyzed for MAP kinase activation by anti-phospho-ERK1/2 antibody. The membrane was stripped and re-probed with anti-ERK1/2 antibody. (B) Lack of the feedback activation of the MAP and PI-3 kinase pathways in BT-20 cells. BT20 cells seeded in 6-well plates were starved in DMEM medium containing 05% EBS for 2 hr and treated with A77 1726 (0, 50 or 100 μM), Cells were harvested and analyzed for protein phosphorylation by specific antibodies as indicated. Protein loading was monitored by stripping membrane and re-probing with antibodies against non-phosphorylated proteins. (C) Strong feedback activation of the PI-3 kinase pathway and weak feedback activation of the MAP kinase pathway in MCF-7 cells by A77 1726 and rapamycin. […] Cells were harvested and analyzed for protein phosphorylation with the indicated antibodies. […] Cells were harvested and analyzed for protein phosphorylation by specific antibodies as indicated. Protein loading was monitored by stripping membrane and re-probing with antibodies against nonphosphorylated proteins. […]

[3] = tested on: carbomoyl-phosphate synthetase 2 (CAD) Ser-1859 phosphorylation; experiment: CAD phosphorylation in A375 cells (phosphor-specific antibody); conditions: A375 cells, 0, 50, 100 or 200 μM for 2 hours
Protocol: FIG. 12 illustrates inhibition of carbamoyl-phosphate synthetase 2 (CAD) by A 77 1726.
The ability of […] to inhibit phosphorylation of CAD at the Ser-1859 site was tested. A375 melanoma tumor cell line cultures were pretreated with the 0, 50, 100 or 200 μM A 771726 for 2 hours. Total cell lysates were prepared and analyzed for the phosphorylation of CAD by a phosphor-specific antibody.

Structure (SMILES): C/C(O)=C(\C#N)C(=O)Nc1ccc(C(F)(F)F)cc1 [A77 1726]
- effect on Raf-1 phosphorylation [1]: no increased Raf-1 phosphorylation; also recorded: had no effect
- effect on ERK phosphorylation [2]: slightly induced
- effect on S6^S235/236 phosphorylation [2]: Inhibition
- effect on CAD phosphorylation at Ser-1859 [3]: inhibited phosphorylation in a dose-dependent manner
